Measurements as given in PMC7056318, “An algal enzyme required for biosynthesis of the most abundant marine carotenoids” (Science Advances, 2020).

Tests used:
Type in all cases: biochemical
PtVDE = target: T1, PtVDE (Phaeodactylum tricornutum, UniProt B7FUR6); experiment: HPLC de-epoxidase assay, dose-response
T1 construct: gene VDE
T1 sequence (B7FUR6 105-437): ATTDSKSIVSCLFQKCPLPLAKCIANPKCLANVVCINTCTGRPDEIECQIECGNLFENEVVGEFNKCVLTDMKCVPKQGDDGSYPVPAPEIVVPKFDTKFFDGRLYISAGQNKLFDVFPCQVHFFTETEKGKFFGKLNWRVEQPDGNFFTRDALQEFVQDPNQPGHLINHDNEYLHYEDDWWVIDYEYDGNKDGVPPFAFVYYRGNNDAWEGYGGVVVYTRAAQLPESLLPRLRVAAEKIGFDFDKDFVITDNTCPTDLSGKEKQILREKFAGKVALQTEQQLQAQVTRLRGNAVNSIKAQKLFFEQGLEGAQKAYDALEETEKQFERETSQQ

PtVDL1 = target: T2, PtVDL1 (Phaeodactylum tricornutum, UniProt B7G087); experiment: HPLC tautomerase assay, dose-response
T2 construct: gene VDL1
T2 sequence (B7G087 112-453): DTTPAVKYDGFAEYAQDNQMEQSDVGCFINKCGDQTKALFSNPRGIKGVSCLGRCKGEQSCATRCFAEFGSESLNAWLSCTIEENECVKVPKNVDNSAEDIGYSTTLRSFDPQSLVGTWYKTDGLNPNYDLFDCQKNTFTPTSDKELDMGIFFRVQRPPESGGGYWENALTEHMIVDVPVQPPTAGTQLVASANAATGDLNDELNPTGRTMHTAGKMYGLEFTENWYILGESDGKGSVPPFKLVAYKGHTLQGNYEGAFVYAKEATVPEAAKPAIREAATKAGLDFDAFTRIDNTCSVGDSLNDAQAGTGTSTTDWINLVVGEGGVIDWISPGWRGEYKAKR

VDL1 from T. pseudonana = target: T3, VDL1 from T. pseudonana (Thalassiosira pseudonana, UniProt B8C0W7); experiment: HPLC, conversion of violaxanthin to neoxanthin; details: pH 5.2, 20 °C, MGDG, 3 h
T3 construct: gene THAPSDRAFT_22076
T3 sequence (B8C0W7 103-423): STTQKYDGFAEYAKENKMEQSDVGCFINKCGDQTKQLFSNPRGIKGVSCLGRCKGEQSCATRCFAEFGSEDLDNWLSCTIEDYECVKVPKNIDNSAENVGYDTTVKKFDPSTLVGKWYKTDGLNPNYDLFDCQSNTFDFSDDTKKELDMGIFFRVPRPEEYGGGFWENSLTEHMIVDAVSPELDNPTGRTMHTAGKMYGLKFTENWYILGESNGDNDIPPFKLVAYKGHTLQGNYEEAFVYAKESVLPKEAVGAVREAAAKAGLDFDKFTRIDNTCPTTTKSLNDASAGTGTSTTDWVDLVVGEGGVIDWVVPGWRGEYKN

Row | SMILES | IC50 (PtVDE) | IC50 (PtVDL1) | HPLC, conversion of violaxanthin to neoxanthin (VDL1 from T. pseudonana)
1 | OC(CS)C(O)CS (stereo not drawn) [DTT] | 0.68 mM | 73 mM | 
2 | CC(/C=C/C=C(C)/C=C/[C@@]12O[C@]1(C)C[C@@H](O)CC2(C)C)=C\C=C\C=C(C)\C=C\C=C(C)\C=C\[C@@]12O[C@]1(C)C[C@@H](O)CC2(C)C [violaxanthin] |  |  | also showed violaxanthin-neoxanthin tautomerase activity in vitro
